Calls of active or inactive are those of the source.
What was measured:
[1] = molecular target: Lysosomal acid glucosylceramidase (Homo sapiens, UniProt P04062); experiment: Dose response cell-based high throughput screening assay to identify enhancers of beta-glucosidase activity. [Related pubchem assays: 784 ]; format: functional
[2] = molecular target: T1, Rac GTPase-activating protein 1 (Homo sapiens, UniProt Q9H0H5); experiment: blockers of MgcRacGAP-driven Rac1 GTP hydrolysis – biochemical, ADP Hunter fluorescence, primary and confirmatory, confirmation (AID 624330); format: functional
T1 sequence (Q9H0H5 whole entry): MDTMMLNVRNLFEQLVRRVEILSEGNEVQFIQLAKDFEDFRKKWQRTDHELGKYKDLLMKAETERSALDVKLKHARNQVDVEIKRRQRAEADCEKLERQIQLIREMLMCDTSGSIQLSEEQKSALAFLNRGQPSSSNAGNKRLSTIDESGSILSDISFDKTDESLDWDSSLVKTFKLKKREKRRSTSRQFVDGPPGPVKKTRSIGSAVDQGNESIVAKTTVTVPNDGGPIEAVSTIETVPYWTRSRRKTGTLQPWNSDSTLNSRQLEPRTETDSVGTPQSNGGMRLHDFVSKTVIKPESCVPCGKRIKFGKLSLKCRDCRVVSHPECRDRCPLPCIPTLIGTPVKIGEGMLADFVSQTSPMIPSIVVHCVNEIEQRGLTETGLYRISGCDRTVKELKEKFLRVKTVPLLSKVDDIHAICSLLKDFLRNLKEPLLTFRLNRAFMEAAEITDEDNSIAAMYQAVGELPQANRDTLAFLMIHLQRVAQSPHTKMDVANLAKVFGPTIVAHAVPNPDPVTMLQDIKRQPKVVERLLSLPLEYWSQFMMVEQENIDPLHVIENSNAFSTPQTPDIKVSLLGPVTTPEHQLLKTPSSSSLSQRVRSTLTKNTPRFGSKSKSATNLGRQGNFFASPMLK

Protein skinhead-1 = molecular target: T2, Protein skinhead-1 (Caenorhabditis elegans, UniProt P34707); format: functional
T2 sequence (P34707 whole entry): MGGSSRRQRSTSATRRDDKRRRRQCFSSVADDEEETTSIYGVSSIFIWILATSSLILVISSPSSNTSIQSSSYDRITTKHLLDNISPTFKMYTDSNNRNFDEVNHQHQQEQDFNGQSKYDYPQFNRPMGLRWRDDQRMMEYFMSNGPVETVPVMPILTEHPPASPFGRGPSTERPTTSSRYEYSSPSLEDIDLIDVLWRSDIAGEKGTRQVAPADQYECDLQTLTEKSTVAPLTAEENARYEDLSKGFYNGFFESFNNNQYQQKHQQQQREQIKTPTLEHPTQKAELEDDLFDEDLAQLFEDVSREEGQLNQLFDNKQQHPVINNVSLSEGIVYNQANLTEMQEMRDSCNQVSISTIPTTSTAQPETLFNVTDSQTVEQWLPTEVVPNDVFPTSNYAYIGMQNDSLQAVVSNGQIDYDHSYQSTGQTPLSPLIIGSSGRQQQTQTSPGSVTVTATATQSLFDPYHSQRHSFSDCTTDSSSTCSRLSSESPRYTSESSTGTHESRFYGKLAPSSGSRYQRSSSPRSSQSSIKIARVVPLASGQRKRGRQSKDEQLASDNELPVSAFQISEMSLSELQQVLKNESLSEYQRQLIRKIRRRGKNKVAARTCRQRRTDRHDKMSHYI

Insulin-degrading enzyme = molecular target: T3, Insulin-degrading enzyme (Homo sapiens, UniProt P14735); experiment: Dose Response: Fluorescence polarization-based cell-based high throughput dose response assay for inhibitors of insulin-degrading enzyme (IDE). [Related pubchem assays: 434962 (Primary screen (IDE inhibitors in singlicate)), 449730 (Counterscreen (Cytotoxicity in triplicate)), 435028 (Confirmation (IDE inhibitors in triplicate)), 434984 (Summary …; format: functional
T3 sequence (P14735 whole entry): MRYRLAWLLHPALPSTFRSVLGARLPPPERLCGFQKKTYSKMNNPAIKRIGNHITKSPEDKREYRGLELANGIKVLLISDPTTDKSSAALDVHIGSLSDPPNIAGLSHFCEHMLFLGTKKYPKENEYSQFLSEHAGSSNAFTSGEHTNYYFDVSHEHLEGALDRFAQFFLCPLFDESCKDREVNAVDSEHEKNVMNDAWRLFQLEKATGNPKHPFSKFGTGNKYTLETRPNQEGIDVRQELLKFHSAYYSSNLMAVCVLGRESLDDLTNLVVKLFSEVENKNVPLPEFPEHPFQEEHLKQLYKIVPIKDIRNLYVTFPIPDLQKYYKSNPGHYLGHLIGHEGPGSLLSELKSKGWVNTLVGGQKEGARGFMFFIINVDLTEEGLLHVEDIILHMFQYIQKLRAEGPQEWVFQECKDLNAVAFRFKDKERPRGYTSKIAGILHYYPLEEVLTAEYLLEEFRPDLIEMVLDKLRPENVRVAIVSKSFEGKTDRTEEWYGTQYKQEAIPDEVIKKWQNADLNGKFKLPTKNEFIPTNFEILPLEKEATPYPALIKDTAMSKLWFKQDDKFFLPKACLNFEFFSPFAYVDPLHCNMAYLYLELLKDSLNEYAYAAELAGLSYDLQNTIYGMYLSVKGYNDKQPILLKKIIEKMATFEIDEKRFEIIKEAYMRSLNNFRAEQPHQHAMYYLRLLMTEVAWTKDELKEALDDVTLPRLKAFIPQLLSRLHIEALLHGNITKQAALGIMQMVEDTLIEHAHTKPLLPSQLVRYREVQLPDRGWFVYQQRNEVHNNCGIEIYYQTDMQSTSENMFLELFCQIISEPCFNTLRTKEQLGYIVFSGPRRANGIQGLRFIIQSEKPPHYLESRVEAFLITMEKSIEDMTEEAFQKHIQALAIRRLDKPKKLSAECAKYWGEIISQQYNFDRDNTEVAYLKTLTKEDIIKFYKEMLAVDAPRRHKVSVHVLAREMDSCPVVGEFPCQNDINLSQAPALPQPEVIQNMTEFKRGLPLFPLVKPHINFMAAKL

[3] = mitochondrial function rescue without frataxin homolog – Friedreich's ataxia, plus single-dose screen, dose response (AID 1465); format: functional;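 note: yeast depleted of Yfh1p frataxin homolog grown on glycerol needing respiration; WST-1 tetrazolium dye reduction as measure of cellular dehydrogenase metabolic activity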
[4] = Counterscreen for IDE inhibitors: Luminescence-based cell-based high throughput dose response assay to identify compounds that are cytotoxic to HEK cells. [Related pubchem assays: 434962 (Primary screen (IDE inhibitors in singlicate)), 449730 (Counterscreen (Cytotoxicity in triplicate)), 435028 (Confirmation (IDE inhibitors in triplicate)) …; format: functional; details: HEK293
[5] = molecular target: T4, Dual specificity protein phosphatase 6 (Rattus norvegicus, UniProt Q64346); format: functional
T4 sequence (Q64346 whole entry): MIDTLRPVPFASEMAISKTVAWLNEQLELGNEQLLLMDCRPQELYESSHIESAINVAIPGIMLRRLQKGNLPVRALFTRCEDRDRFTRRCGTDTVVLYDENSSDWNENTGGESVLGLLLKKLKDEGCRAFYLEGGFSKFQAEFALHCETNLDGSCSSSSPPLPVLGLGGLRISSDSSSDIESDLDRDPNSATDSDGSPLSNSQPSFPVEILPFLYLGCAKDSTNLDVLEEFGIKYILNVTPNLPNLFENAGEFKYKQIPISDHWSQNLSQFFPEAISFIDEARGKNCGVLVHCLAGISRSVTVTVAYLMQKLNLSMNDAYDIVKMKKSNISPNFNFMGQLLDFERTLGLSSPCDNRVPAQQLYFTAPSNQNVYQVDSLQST

[6] = molecular target: T4, Dual specificity protein phosphatase 6
[7] = molecular target: T5, Tyrosine-protein phosphatase non-receptor type 7 (Homo sapiens, UniProt P35236); format: functional
T5 sequence (P35236 whole entry): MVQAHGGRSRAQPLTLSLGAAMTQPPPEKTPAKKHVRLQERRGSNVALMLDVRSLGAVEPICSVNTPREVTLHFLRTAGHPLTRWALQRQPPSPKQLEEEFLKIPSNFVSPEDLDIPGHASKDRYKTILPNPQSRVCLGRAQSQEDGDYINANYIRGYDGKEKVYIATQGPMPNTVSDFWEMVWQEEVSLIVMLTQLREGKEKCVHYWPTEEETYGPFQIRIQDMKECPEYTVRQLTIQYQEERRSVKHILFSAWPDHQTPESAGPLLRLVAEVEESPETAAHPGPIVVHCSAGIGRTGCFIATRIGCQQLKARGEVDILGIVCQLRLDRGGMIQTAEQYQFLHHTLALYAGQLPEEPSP

[8] = molecular target: Glyceraldehyde-3-phosphate dehydrogenase (Homo sapiens, UniProt P04406)
Chain of Glyceraldehyde-3-phosphate dehydrogenase (P04406 whole entry): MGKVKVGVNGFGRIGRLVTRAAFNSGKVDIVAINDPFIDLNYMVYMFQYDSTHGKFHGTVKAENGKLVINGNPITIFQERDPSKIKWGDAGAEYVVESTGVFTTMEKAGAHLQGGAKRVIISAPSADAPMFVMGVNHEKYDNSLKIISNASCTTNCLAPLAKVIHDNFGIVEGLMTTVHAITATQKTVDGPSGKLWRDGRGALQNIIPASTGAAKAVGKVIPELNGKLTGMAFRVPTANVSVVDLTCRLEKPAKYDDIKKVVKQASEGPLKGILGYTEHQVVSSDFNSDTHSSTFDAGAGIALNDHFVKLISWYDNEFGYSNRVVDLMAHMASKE

[9] = molecular target: Heat shock cognate 71 kDa protein (Homo sapiens, UniProt P11142); experiment: In Vitro Hsc70 Dose Response Fluorescence Polarization Assay. [Related pubchem assays: 1072 ]
Chain of Heat shock cognate 71 kDa protein (P11142 whole entry): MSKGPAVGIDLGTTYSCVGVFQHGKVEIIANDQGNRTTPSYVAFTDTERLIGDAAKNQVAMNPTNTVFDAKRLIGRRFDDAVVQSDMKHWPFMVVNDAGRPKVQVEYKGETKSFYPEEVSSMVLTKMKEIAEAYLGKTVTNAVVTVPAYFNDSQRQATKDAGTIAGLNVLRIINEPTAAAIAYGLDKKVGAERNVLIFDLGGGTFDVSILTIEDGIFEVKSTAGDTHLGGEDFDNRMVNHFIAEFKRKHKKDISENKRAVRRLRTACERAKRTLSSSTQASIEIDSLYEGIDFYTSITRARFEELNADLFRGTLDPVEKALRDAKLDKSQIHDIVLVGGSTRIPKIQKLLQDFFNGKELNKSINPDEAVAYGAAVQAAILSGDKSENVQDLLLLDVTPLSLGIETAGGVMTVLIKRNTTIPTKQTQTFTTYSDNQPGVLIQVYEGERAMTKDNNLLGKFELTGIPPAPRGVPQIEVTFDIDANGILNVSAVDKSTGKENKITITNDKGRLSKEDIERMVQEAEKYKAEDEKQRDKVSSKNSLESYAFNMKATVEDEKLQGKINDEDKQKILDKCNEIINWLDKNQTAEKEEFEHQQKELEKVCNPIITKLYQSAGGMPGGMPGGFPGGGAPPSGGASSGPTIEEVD

[10] = molecular target: Heat shock 70 kDa protein 1A (Homo sapiens, UniProt P0DMV8); experiment: inhibition of Hsp70 binding activity – biochemical, fluorescence polarization, SAR follow-up (AID 1072)
Chain of Heat shock 70 kDa protein 1A (P0DMV8 whole entry): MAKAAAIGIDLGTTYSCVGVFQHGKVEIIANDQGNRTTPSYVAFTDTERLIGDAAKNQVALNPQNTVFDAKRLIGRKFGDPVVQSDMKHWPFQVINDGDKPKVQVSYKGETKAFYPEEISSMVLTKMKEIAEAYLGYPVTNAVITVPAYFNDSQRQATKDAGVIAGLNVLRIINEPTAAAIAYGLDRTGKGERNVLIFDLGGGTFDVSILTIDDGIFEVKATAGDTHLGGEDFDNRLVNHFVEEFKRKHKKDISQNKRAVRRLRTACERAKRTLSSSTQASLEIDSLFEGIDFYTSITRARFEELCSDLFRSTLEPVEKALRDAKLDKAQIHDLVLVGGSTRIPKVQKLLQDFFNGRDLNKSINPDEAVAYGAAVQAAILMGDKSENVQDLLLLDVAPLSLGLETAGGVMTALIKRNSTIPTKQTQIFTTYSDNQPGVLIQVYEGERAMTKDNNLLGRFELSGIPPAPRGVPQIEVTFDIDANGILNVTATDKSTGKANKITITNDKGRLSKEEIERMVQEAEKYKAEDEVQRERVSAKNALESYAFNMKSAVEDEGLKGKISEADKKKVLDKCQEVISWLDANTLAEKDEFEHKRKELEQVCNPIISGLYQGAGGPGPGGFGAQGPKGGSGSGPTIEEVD

[11] = molecular target: Voltage-gated N-type calcium channel alpha-1B subunit/Amyloid beta A4 precursor protein-binding family A member 1 (Homo sapiens, UniProt Q00975+Q02410); experiment: disruptors of Mint-PDZ/N-type channel peptide interaction – biochemical, HTRF, set 2, SAR follow-up (AID 434980); format: functional
[12] = molecular target: Transitional endoplasmic reticulum ATPase (Homo sapiens, UniProt P55072, C522A); experiment: C522A mutant p97 ATPase inhibitors, dose response, counter-screen for p97 inhibitor project, biochemical, luminescence (AID 1544)
Chain of Transitional endoplasmic reticulum ATPase (Homo sapiens, UniProt P55072, C522A) (P55072 2-806 C522A limits assumed): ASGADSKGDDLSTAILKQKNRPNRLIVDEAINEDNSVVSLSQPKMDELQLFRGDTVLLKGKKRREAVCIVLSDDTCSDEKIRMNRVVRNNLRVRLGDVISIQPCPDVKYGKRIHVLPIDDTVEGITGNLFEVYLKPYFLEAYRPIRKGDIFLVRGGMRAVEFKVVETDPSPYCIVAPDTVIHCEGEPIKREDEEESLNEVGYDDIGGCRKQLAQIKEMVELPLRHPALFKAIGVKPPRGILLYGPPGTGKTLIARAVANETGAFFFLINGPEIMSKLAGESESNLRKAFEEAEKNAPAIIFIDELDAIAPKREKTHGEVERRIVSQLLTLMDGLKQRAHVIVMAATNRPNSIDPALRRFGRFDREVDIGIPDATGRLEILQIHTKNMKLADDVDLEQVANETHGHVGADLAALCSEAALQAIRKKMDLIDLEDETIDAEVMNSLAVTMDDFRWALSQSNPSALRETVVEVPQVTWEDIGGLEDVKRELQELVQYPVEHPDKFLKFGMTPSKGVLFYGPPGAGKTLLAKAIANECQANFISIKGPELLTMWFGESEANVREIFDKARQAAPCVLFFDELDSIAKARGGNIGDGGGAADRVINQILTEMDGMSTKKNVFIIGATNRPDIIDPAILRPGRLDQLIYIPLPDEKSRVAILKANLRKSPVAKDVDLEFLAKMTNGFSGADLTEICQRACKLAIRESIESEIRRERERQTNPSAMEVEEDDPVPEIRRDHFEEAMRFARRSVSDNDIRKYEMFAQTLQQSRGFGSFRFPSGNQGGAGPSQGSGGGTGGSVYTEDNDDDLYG

[13] = molecular target: Transitional endoplasmic reticulum ATPase (Homo sapiens, UniProt P55072); experiment: p97 ATPase inhibitors, dose response, biochemical (AID 1534)
Chain of Transitional endoplasmic reticulum ATPase (Homo sapiens, UniProt P55072) (P55072 whole entry): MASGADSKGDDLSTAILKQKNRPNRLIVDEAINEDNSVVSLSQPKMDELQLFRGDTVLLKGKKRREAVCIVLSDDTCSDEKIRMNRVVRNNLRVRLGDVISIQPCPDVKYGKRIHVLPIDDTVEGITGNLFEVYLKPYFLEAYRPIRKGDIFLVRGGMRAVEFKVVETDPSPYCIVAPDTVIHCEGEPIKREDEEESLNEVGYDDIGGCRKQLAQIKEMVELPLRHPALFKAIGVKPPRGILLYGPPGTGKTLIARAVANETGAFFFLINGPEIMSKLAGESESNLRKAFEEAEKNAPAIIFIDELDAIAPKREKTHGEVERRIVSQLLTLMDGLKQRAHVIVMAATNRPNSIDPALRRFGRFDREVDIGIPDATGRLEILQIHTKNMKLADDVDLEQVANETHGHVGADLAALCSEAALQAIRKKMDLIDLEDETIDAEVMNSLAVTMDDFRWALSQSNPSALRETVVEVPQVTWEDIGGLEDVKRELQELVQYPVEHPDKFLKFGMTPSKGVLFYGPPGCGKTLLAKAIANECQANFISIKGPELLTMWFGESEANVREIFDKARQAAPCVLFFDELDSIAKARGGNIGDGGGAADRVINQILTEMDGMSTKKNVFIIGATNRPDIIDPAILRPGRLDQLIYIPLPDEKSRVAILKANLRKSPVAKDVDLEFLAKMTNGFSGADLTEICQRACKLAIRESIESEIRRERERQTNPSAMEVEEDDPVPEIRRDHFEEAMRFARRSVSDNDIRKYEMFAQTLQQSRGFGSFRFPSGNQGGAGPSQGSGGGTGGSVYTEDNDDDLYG

[14] = A Cell Based Secondary Assay To Explore Cytotoxicity of Compounds that Sensitize Mycobacterium Tuberculosis to Beta-Lactam Antibiotics.; format: functional

Chain of Lysosomal acid glucosylceramidase (P04062 whole entry): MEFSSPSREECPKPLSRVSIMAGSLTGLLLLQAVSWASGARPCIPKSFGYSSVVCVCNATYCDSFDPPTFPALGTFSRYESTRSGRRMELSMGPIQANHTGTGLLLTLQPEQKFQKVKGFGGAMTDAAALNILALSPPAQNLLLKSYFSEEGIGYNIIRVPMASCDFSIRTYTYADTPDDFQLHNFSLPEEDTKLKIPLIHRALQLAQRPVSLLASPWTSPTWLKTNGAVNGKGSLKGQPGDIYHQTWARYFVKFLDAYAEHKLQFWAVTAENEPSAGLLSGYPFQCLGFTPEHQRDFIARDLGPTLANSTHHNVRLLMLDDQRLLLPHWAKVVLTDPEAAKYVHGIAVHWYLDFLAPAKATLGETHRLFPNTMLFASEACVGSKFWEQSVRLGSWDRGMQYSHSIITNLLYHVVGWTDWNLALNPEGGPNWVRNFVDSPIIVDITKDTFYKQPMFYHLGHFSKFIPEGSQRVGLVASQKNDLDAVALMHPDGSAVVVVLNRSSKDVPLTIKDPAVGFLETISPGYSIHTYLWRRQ

CC(C)CCn1nnnc1C(c1ccccc1)N1CCC(C(N)=O)CC1 (stereo unspecified)
EC50 [1]: > 10 µM (not active)

Cc1c(N2C(=O)/C(=C\c3ccc(N(C)C)cc3)N(C)C2=S)c(=O)n(-c2ccccc2)n1C
IC50 [2]: 74.4 µM (active) | IC50 (Protein skinhead-1): 57.2 µM (inactive) | IC50 (Insulin-degrading enzyme): 13.9 µM (not active) | EC50 [3]: > 100 µM (active) | IC50 [4]: 37.9 µM (not active)

O=C(O)C1Nc2cc(Cl)cc(Cl)c2C2C=CCC12 (stereo unspecified)
IC50 [5]: > 100 µM (inactive) | IC50 [6]: 61.6 µM (active) | IC50 [7]: > 100 µM (not active) | IC50 [8]: 62.7 µM (active) | IC50 [9]: 53 µM (active) | IC50 [10]: 18.1 µM (active)

CN(C)CCNC(=O)c1cc(-c2ccco2)nc2ccccc12
IC50 [11]: > 56.8 µM (inactive)

COc1ccc2ccccc2c1/C=N/NC(=O)c1sc(N)c(C#N)c1C
IC50 [12]: > 50 µM (not active) | IC50 [13]: 2.58 µM (active)

CCOc1ccc(/C=N/NC(=O)c2ccccc2O)cc1CN1CC2CC(C1)c1cccc(=O)n1C2 (stereo unspecified)
CC50 [14]: 23 µM (active)
